“Also recorded” adds a separate entry of the source. Marks after values point to notes of the source that are not given here.
Experiments:
Type in all cases: in vivo, human
[1] = Plasma pharmacokinetics after single oral doses (SAD cohorts); settings: for half-life / Cmax / AUC / Tmax / AUC(0-inf) / Vd/F: human, plasma; for half-life: po; for AUC: read-out: AUC24; for Vd/F: read-out: Vz/F
Description: The SAD portion of the study used a randomized, double-blind, placebo-controlled, sequential, escalating dose design, in which participants received single ascending oral doses of the study drug. Seven cohorts were dosed in sequence (Figure 1).
(§1) For all study groups, blood samples for PK assessment were obtained predose, up to 12 times daily on day 1, and then at regular intervals throughout the study (see Supplemental Appendix for details). Standard noncompartmental methods were used to calculate PK parameters using Phoenix WinNonlin, version 7.0; actual sample collection times were used.
Statistical A nalysis of P harm acokinetic (PK) P aram eters
The PK analyses w ere int ended to assess single- dose kinetics, multiple-dose (steady state) […]
and the influence of food on the absorption and eli mination of aficamten.
For the SAD cohort, dos e proportionality of afi camten was evaluat ed using a power model on […]
and day 14 or 17. Several considerations were taken into account when assessing dose proportionality of the drug, such as results derived from the power model statistical analysis (e.g., the slope estimate and width of the 2- sided 95% confidence intervals [CIs ]), qualitative assessment specific to th e PK of the drug, and clinical relev ance. For th e SAD cohort, the […]
time curve (A UC)from time 0 to the time of the last measurable concentration(AUC last), AUC […]
plasma concent ration ( C max). […]
The statistical linear relationship between the ln-transformed PK parameters and the ln-transformed dos e was verified by including the quadratic (ln Dos e)2 and cubic (ln Dose) 3 effects.
The statistical linear relationship was established if the quadratic and cubi c effects were not […]
significant, but of such small magnitude that they were not clinically relevant. The dose-proportionality analysis was performed using SAS® PROC MIXED.

[2] = Plasma pharmacokinetics in the food-effect cohort; settings: single 10 mg; for CL/F / Vd/F / half-life: arithmetic mean ± SD; for Vd/F: read-out: Vz/F; for half-life: read-out: t½ (converted); for AUC(0-inf) / Cmax / AUC: geometric mean (geometric CV%); for AUC: read-out: AUC24
Text: as §1, with “Participants were randomized in a 1:1 ratio to 1 of 2 sequences: fasted/fed or fed/fasted. […] For” for “For”

[3] = tested on: healthy adults; assay: Treatment-emergent adverse events, single ascending dose (SAD) cohorts
Description: The SAD portion of the study used a randomized, double-blind, placebo-controlled, sequential, escalating dose design, in which participants received single ascending oral doses of the study drug. Seven cohorts were dosed in sequence (Figure 1). […] Safety was assessed by the incidence of adverse events (AEs) and by the incidence of reduced LVEF. Treatment-emergent AEs (TEAEs) were defined as AEs that began or increased after study drug administration. All AEs were coded using the Medical Dictionary for Regulatory Activities, version 21.1, and graded using the National Cancer Institute Common Terminology Criteria for AEs (version 4.03) 5-point severity scale.[18] Each AE was judged as either related or unrelated to the study drug by the treating investigator. Clinical laboratory tests were obtained at regular intervals in all cohorts.

[4] = single oral dose 1 mg, geometric mean (geometric CV%), n = 6
[5] = single oral dose 3 mg, geometric mean (geometric CV%), n = 6
[6] = single oral dose 3 mg, mean ± SD, n = 5
[7] = single oral dose 10 mg, mean ± SD, n = 4
[8] = single oral dose 25 mg, geometric mean (geometric CV%), n = 6
[9] = single oral dose 25 mg, mean ± SD, n = 6
[10] = single oral dose 40 mg, geometric mean (geometric CV%), n = 6
[11] = single oral dose 40 mg, mean ± SD, n = 5
[12] = single oral dose 50 mg, geometric mean (geometric CV%), n = 11
[13] = single oral dose 50 mg, mean ± SD, n = 9
[14] = human, plasma, oral, 10 mg, Fasted, n = 4
[15] = human, plasma, oral, 10 mg, Fasted, n = 10
[16] = human, plasma, oral, 10 mg, Fed, n = 7

## CCc1nc(-c2ccc3c(c2)CC[C@H]3NC(=O)c2cnn(C)c2)no1 [Aficamten]
[1]; 3 mg, single oral dose 3 mg, mean ± SD, n = 5, read-out: t1/2 (converted)
  half-life: 75.1 ± 21.8 h
[1]; 10 mg, single oral dose 10 mg (extensive metabolizers), mean ± SD, n = 4, read-out: t1/2 (converted)
  half-life: 85 h
[1]; 25 mg, single oral dose 25 mg, mean ± SD, n = 6, read-out: t1/2 (converted)
  half-life: 79.8 ± 10 h
[1]; 40 mg, single oral dose 40 mg, mean ± SD, n = 4, read-out: t1/2 (converted)
  half-life: 79.2 ± 18.5 h
[1]; 50 mg, single oral dose 50 mg, mean ± SD, n = 9, read-out: t1/2 (converted)
  half-life: 80.4 ± 14.9 h
[1]; single oral doses, read-out: Mean half-life, range across single-dose cohorts
  half-life: 75 to 85 h
[1]; [4]
  Cmax: 5.8 ng/mL
  AUC: 50 ng·h/mL
[1]; single oral dose 1 mg, median (range), n = 6, read-out: Tmax
  Tmax: 1 h
[1]; single oral dose 3 mg, geometric mean (geometric CV%), n = 5
  AUC(0-inf): 823 ng·h/mL
[1]; [5]
  Cmax: 26.1 ng/mL
  AUC: 174 ng·h/mL
[1]; [6]
  Vd/F: 393 ± 122 L
  CL/F: 4.2 ± 3.1 L/h
[1]; single oral dose 3 mg, median (range), n = 6, read-out: Tmax
  Tmax: 1.3 h
[1]; single oral dose 10 mg (extensive metabolizers), geometric mean (geometric CV%), n = 6
  AUC: 679 ng·h/mL
[1]; single oral dose 10 mg, geometric mean (geometric CV%), n = 4
  AUC(0-inf): 3430 ng·h/mL
[1]; single oral dose 10 mg, geometric mean (geometric CV%), n = 6
  Cmax: 70.5 ng/mL
[1]; [7]
  Vd/F: 362 ± 108 L
  CL/F: 3.0 ± 0.7 L/h
[1]; single oral dose 10 mg, median (range), n = 6, read-out: Tmax
  Tmax: 2.8 h
[1]; [8]
  AUC(0-inf): 7110 ng·h/mL
  Cmax: 193 ng/mL
  AUC: 1490 ng·h/mL
[1]; [9]
  Vd/F: 405 ± 56.6 L
  CL/F: 3.6 ± 0.5 L/h
[1]; single oral dose 25 mg, median (range), n = 6, read-out: Tmax
  Tmax: 1.8 h
[1]; single oral dose 40 mg, geometric mean (geometric CV%), n = 5
  AUC(0-inf): 11900 ng·h/mL
[1]; [10]
  Cmax: 383 ng/mL
  AUC: 2530 ng·h/mL
[1]; [11]
  Vd/F: 382 ± 66.9 L
  CL/F: 3.4 ± 0.6 L/h
[1]; single oral dose 40 mg, median (range), n = 6, read-out: Tmax
  Tmax: 1 h
[1]; single oral dose 50 mg, geometric mean (geometric CV%), n = 9
  AUC(0-inf): 13700 ng·h/mL
[1]; [12]
  Cmax: 359 ng/mL
  AUC: 2830 ng·h/mL
[1]; [13]
  Vd/F: 431 ± 123 L
  CL/F: 3.8 ± 1.1 L/h
[1]; single oral dose 50 mg, median (range), n = 11, read-out: Tmax
  Tmax: 1 h
[1]; single oral dose 75 mg, median (range), n = 1, read-out: Tmax
  Tmax: 0.5 h
[1]; single oral dose 75 mg, n = 1
  Cmax: 1220 ng/mL
  AUC: 4560 ng·h/mL
[1]; single oral doses 1 to 75 mg, read-out: Median time to reach peak concentrations, range across doses
  Tmax: 0.5 to 2.76 h
[1]; single oral dose 10 mg (extensive metabolizers), mean ± SD, n = 4
  t1/2: 84.7 ± 17.7 h
[1]; single oral doses
  Maximum time to maximum observed concentration across all participants: 4.0 h
[1]; single oral doses 1 to 50 mg
  Dose proportionality of Cmax and exposure: dose-proportional; also recorded: dose proportionality; also recorded: linear kinetics
[2]; Fasted, n = 4
  CL/F: 2.8 ± 0.6 L/h
[2]; Fed, n = 7
  CL/F: 3.1 ± 0.9 L/h
[2]; [14]
  Vd/F: 346 ± 134 L
  half-life: 84.4 ± 16.4 h
  AUC(0-inf): 3670 ng·h/mL
[2]; [15]
  Cmax: 50.6 ng/mL
  AUC: 601 ng·h/mL
[2]; human, plasma, oral, 10 mg, Fasted, median (range), n = 10
  Tmax: 2.3 h
[2]; human, plasma, oral, 10 mg, Fed (high-fat breakfast), n = 12
  Cmax: 65 ng/mL
[2]; [16]
  Vd/F: 340 ± 100 L
  half-life: 78 ± 8.1 h
  AUC(0-inf): 3410 ng·h/mL
[2]; human, plasma, oral, 10 mg, Fed, n = 12
  AUC: 631 ng·h/mL
[2]; fed vs fasted
  Effect of food on the PK: not affected; also recorded: no significant effect; also recorded: no effect of food
  Increase of Cmax when taken with food: approximately 30%
[3]; SAD 1 mg, n = 6
  Participants with any TEAE: 1 (17) n (%)
[3]; SAD 10 mg, n = 6
  Participants with any TEAE: 1 (17) n (%)
  TEAE: Headache: 1 (17) n (%)
[3]; SAD 25 mg, n = 6
  Participants with any TEAE: 5 (83) n (%)
  TEAE: Abdominal tenderness: 1 (17) n (%)
  TEAE: Dyspepsia: 1 (17) n (%)
  TEAE: Flatulence: 1 (17) n (%)
  TEAE: Headache: 2 (33) n (%)
  TEAE: Nausea: 2 (33) n (%)
  TEAE: Upper abdominal pain: 2 (33) n (%)
[3]; SAD 40 mg, n = 6
  Participants with any TEAE: 1 (17) n (%)
  TEAE: Ejection fraction decreased: 1 (17) n (%)
[3]; SAD 50 mg, n = 11
  Participants with any TEAE: 4 (36) n (%)
  TEAE: Abdominal tenderness: 1 (9) n (%)
  TEAE: Dyspepsia: 1 (9) n (%)
  TEAE: Ejection fraction decreased: 1 (9) n (%)
  TEAE: Flatulence: 1 (9) n (%)
  TEAE: Headache: 1 (9) n (%)
[3]; SAD 50 mg, n = 11, bubbling sensation to the left chest, consistent with a gastrointestinal rather than cardiac association
  TEAE: Chest pain: 1 (9) ^a n (%)
[3]; SAD 75 mg, n = 1
  Participants with any TEAE: 1 (100) n (%)
  TEAE: Ejection fraction decreased: 1 (100) n (%)
[3]; SAD 75 mg, n = 1, onset approximately 60 hours postdose
  TEAE: Chest pain: 1 (100) ^b n (%)

Source: paper PMC9436819 (JACC: Basic to Translational Science, 2022)
